Test results published in publication PMC10221466, “Isolation of Nocuolin A and Synthesis of New Oxadiazine Derivatives. Design, Synthesis, Molecular Docking, Apoptotic Evaluation, and Cathepsin B Inhibition” (Marine Drugs, 2023).
“Also recorded” adds a separate entry of the source. Like-named read-outs stand apart in the source and are kept apart here. Starred links: 1 amine or outer side, 2 acyl side, 3 side chain; linkers in the order of their positions; H or OH if unused. Positions of bridges follow the written chain, without caps; N, C: chain ends. Non-standard residues stand in square brackets, D forms with d. Residues, ends and D or L forms follow the SMILES beside them. Chains are numbered I, II in the order given. Actinocin(9to1) = Cc1c2oc3c(C)ccc(C(=O)[*:1])c3nc-2c(C(=O)[*:2])c(N)c1=O; NMeV = CN[C@H](C(=O)O)C(C)C; Sar = CNCC(=O)O

Experiments:
cathepsin B [1] = biological target: T1, cathepsin B (Mus musculus, UniProt P10605); experiment: Inhibition of cathepsin B activity, TKPTS cells; format: cell-based; conditions: TKPTS non-tumour cells
T1 construct: Cathepsin B activity in the cell medium; endogenous in cells; host or cells: Hepa-1c1c7 (CRL-2026)
T1 sequence (P10605 80-339): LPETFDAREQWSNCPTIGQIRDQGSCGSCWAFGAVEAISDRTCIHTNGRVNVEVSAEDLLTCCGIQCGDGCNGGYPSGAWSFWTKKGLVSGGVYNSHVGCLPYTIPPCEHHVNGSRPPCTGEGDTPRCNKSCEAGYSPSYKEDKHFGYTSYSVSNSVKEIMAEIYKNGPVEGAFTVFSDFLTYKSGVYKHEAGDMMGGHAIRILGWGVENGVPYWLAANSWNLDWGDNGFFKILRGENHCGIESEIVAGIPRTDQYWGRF
Procedure: (§1) For the determination of the cathepsin B’s inhibition activity, its superficial expression in two tumour cell lines (ACHN and Hepa-1c1c7 cells) and two non-tumour cell lines (TKPTS and FL83B cells) was evaluated by flow cytometry.
(§2) Cathepsin B activity in the cell medium was evaluated by using a fluorogenic substrate: Abz-Gly-Ile-Val-Arg~Ala-Lys(Dnp)-OH. This peptide substrate was purchased from Bachem AG (Bubendorf, Switzerland). The reactions were performed at 40 °C for 10 min [38]. Stock solutions of inhibitory compounds were prepared in DMSO (in a concentration of 10 mM). From these stock solutions, increasing concentrations of the inhibitory compounds (1 and 100 nM) were prepared. […] Fluorescence was measured with excitation/emission wavelength values of 320 and 420 nm, respectively, using the Cary Eclipse fluorescence spectrophotometer (Agilent Technologies, Melbourne, Australia).
(§3) All analyses were performed using version 9.0.0 of GraphPad Prism Software LLC from 1994–2020 (www.graphpad.com, accessed on 2 January 2023). Using non-linear regression, the values of 50% cytotoxic concentration (CC50) and 50% inhibitory concentration (IC50) were determined. In addition, a one-way ANOVA statistical analysis was performed to assess whether the differences between the values were statistically significant (p < 0.05; p < 0.001, Tukey’s multiple comparisons test). All experiments were performed in triplicate.

cathepsin B [2] = biological target: T1, cathepsin B; experiment: Inhibition of cathepsin B activity, FL83B cells; format: cell-based; conditions: FL83B non-tumour cells
Procedure: as §1, §2, §3

cathepsin B [3] = biological target: T1, cathepsin B; experiment: Inhibition of cathepsin B activity, Hepa-1c1c7 cells; format: cell-based; conditions: Hepa-1c1c7 tumour cells
Procedure: as §1, §2, §3

C57BL/6 mice = experiment: Acute toxicity in vivo; conditions: 4 mg/kg i.p.; for Physical aspect and weight after the third day of treatment: mice, day 3
Procedure: Adult male C57BL/6 mice weighing 25–35 g were purchased from the Centre for Laboratory Animals of the Faculty of Medicine from the University Autónoma of Madrid (Spain) and maintained under controlled temperature conditions (22 ± 2 °C), with a constant 12 h light-dark cycle and with access to food and water ad libitum.
Five groups (five mice per group) were selected for this study.
All animals were kept under observation for 7 days, during which their physical aspect, behaviour, and the number of deaths were recorded daily. The negative control (normal saline solution) received only the same quantity of the vehicle (distilled water). These tests were carried out in triplicate. All the surviving animals were euthanised at the end of the study, and their vital organs were individually observed by necropsy and checked for overt pathology.

[4] = SRB viability assay, FL83B cells; format: cell-based; conditions: mouse, FL83B non-tumour cell line, hypoxic conditions (1% O2)
Excerpt: (§4) Two tumour cell lines, ACHN (Human kidney carcinoma) and Hepa-1c1c7 (Human liver carcinoma), and two non-tumour cell lines, TKPTS (Mus musculus kidney normal) and FL83B (Mus musculus liver normal), were used in this study. The cell lines were purchased by the company VALORALIA I MÁS D, SL. From LGC Standards, which is the exclusive distributor of American Type Culture Collection (ATTC) products. […] Likewise, Hepa-1c1c7 (CRL-2026 BSL 1) is an epithelial cell line that was isolated from the liver of a patient with hepatoma. On the other hand, TKPTS (CRL-3361 BSL 2) is a normal cell line with epithelial-like morphology that was isolated in 1997 from the proximal tubule of a mouse kidney. Finally, FL83B (CRL-2390 BSL 1) is a hepatocyte cell that was isolated from the liver of a 15- to 17-day-old foetal mouse in 1969. The cells were maintained in a Dulbecco's modified eagle medium (DMEM, Sigma-Aldrich St. Louis, USA) supplemented with 2 mM L-glutamine (AppliChem, Denmark), 10% foetal bovine serum (FBS, Sigma-Aldrich, USA), 100 units/mL of penicillin and 100 µg/mL of streptomycin (Fisher Scientific, Pittsburgh, USA) in culture flasks, in an incubator with a humidified atmosphere containing 5% CO2, at 37 °C under hypoxic conditions (1% O2), managing to mimic the tumour microenvironment in vivo.
(§5) Cells (200 µL, 2 × 10^4 cells/well) were seeded in 96-well plates and were cultured for 12 h at 37 °C under hypoxic conditions (1% O2). Subsequently, the samples dissolved in dimethyl sulfoxide (DMSO ≥ 99.9% Sigma-Aldrich, CAS Number 67-68-5) were added at different concentrations for 72 h. Actinomycin D (ACT ≥ 95% Sigma-Aldrich, CAS Number 50-76-0) was used as a positive control. Cells were then fixed with 10% trichloroacetic acid (TCA ≥ 99.0% Sigma-Aldrich, CAS Number 76-03-9) for 1 h at 4 °C. After washing with distilled water, 100 μL of 0.4% sulforhodamine B (SRB Dye content 75 % Sigma-Aldrich, CAS Number 3520-42-1) in 1% acetic acid (AcOH ≥ 99.0% Sigma-Aldrich, CAS Number 64-19-7) were added to each well and incubated for 20 min. After washing them three times with 1% TCA, the plates were air-dried, and stained cells were dissolved with 100 μL/well of 10 mM unbuffered tris(hydroxymethyl)aminomethane (Tris Base ≥ 99.9% Sigma-Aldrich, CAS Number 77-86-1). The optical density of the microplates was measured at 540 nm, using an ELISA plate reader, SpectraMax® i3, Molecular Devices.
(§6) All analyses were performed using version 9.0.0 of GraphPad Prism Software LLC from 1994–2020 (www.graphpad.com, accessed on 2 January 2023). Using non-linear regression, the values of 50% cytotoxic concentration (CC50) and 50% inhibitory concentration (IC50) were determined. […]

Hepa-1c1c7 cells = experiment: SRB viability assay, Hepa-1c1c7 cells; format: cell-based; conditions: Mus musculus
Excerpt: as §4, §5, §6

ACHN cells = experiment: SRB viability assay, ACHN cells; format: cell-based; conditions: Homo sapiens, 72 h
Excerpt: as §4, §5, §6

[5] = SRB viability assay, TKPTS cells; format: cell-based; conditions: mouse, TKPTS non-tumour cell line, hypoxic conditions (1% O2)
Excerpt: as §4, §5, §6

cathepsin B [6] = biological target: T2, cathepsin B (Homo sapiens, UniProt P07858); experiment: Inhibition of cathepsin B activity, ACHN cells; format: cell-based; conditions: ACHN tumour cells
T2 construct: Cathepsin B activity in the cell medium; endogenous in cells; host or cells: ACHN (CRL-1611)
Procedure: as §1, §2, §3

[7] = FL83B normal foetal liver hepatocyte cells
[8] = Hepa-1c1c7 tumour cell line, SRB, 72 h, hypoxic conditions (1% O2), read-out: CC50
[9] = ACHN tumour cell line, SRB, hypoxic conditions (1% O2), read-out: CC50
[10] = TKPTS normal kidney proximal tubule cells

CCCNC(=O)[C@H]1O[C@@H]1C(=O)N[C@H](C(=O)N1CCC[C@H]1C(=O)O)[C@@H](C)CC (relative stereo) [CA 074, reference compound]
Ki (cathepsin B [1]): 2.39 ± 0.12 nM | Ki (cathepsin B [2]): 3.08 ± 0.19 nM | Ki (cathepsin B [3]): 5.99 ± 0.64 nM | Physical aspect and weight after the third day of treatment (C57BL/6 mice): active and showed no apparent weight loss

Cc1c2oc3c(C)ccc(C(=O)N[C@@H]4C(=O)N[C@H](C(C)C)C(=O)N5CCC[C@H]5C(=O)N(C)CC(=O)N(C)[C@@H](C(C)C)C(=O)O[C@@H]4C)c3nc-2c(C(=O)N[C@@H]2C(=O)N[C@H](C(C)C)C(=O)N3CCC[C@H]3C(=O)N(C)CC(=O)N(C)[C@@H](C(C)C)C(=O)O[C@@H]2C)c(N)c1=O [Actinomycin, Actinomycin D, reference compound] (I: T[dV]P[Sar][NMeV] / II: T[dV]P[Sar][NMeV]; ester I:1-I:C, II:1-II:C; linker I:N-II:N via Actinocin(9to1))
CC50 at 72 h [4]: 6 ± 0.6 nM | CC50 (Hepa-1c1c7 cells; Hepa-1c1c7, 72 h): 14 ± 0.6 nM | CC50 (ACHN cells; ACHN): 9 ± 0.6 nM | CC50 at 72 h [5]: 3 ± 0.5 nM

CCCCCC1=NN(C(=O)CCO)O[C@H](CCCCC)C1 [Compound 1, 1-[(6R)-5,6-dihydro-4,6-dipentyl-2H-1,2,3-oxadiazin-2-yl]-3-hydroxypropan-1-one]
Ki (cathepsin B [1]): 2.13 ± 0.04 nM | Ki (cathepsin B [2]): 2.61 ± 0.02 nM | Ki (cathepsin B [3]): 3.37 ± 0.24 nM | Ki (cathepsin B [6]): 3.06 ± 0.13 nM | CC50 at 72 h [4, 7]: 2360 ± 100 nM | CC50 (Hepa-1c1c7 cells; [8]): 1250 ± 60 nM | CC50 (ACHN cells; [9]): 760 ± 90 nM | CC50 at 72 h [5, 10]: 1100 ± 50 nM | Physical aspect and weight after the third day of treatment (C57BL/6 mice): active and showed no apparent weight loss

CCCCCC1=NN(C(=O)CCOC(C)=O)O[C@H](CCCCC)C1 [Compound 2, 3-[(6R)-5,6-dihydro-4,6-dipentyl-2H-1,2,3-oxadiazin-2-yl]-3-oxopropyl acetate]
Ki (cathepsin B [1]): 0.49 ± 0.05 nM | Ki (cathepsin B [2]): 0.66 ± 0.09 nM | Ki (cathepsin B [3]): 6.59 ± 0.65 nM | Ki (cathepsin B [6]): 5.67 ± 0.68 nM | CC50 at 72 h [4, 7]: 1940 ± 80 nM | CC50 (Hepa-1c1c7 cells; [8]): 630 ± 50 nM | CC50 (ACHN cells; [9]): 220 ± 30 nM | CC50 at 72 h [5, 10]: 1060 ± 40 nM | Physical aspect and weight after the third day of treatment (C57BL/6 mice): weight loss and signs of disease (bowed backs, loss of hair shine, and slow movements)

CCCCCC1=NN(C(=O)CCOC(=O)CCC(=O)O)O[C@H](CCCCC)C1 [Compound 3, 4-{3-[(6R)-5,6-Dihydro-4,6-dipentyl-2H-1,2,3-oxadiazin-2-yl]-3-oxopropoxy}-4-oxobutanoic acid]
Ki (cathepsin B [1]): 3.29 ± 0.4 nM | Ki (cathepsin B [2]): 4.55 ± 0.81 nM | Ki (cathepsin B [3]): 1.76 ± 0.24 nM | Ki (cathepsin B [6]): 1.52 ± 0.13 nM | CC50 at 72 h [4, 7]: 2800 ± 90 nM | CC50 (Hepa-1c1c7 cells; [8]): 910 ± 80 nM | CC50 (ACHN cells; [9]): 730 ± 100 nM | CC50 at 72 h [5, 10]: 1620 ± 60 nM | Physical aspect and weight after the third day of treatment (C57BL/6 mice): active and showed no apparent weight loss | In vivo toxicity (C57BL/6 mice; murine model, 4 mg/kg): no in vivo toxicity; also recorded: did not show toxicity in vivo
